From a melting point compilation (Tetko et al.; mined from patent text by program, amines drawn as free bases though some values may be those of a salt)

Row | melting point [°C] | SMILES
1 | 60 to 62 | CC(C)[C@H]1COC(=O)N1C(=O)[C@@H](CC(=O)N(C)Cc1ccccc1)Cc1ccccc1
2 | 166 to 168 | O=C(C(Cl)(Cl)Cl)C1(c2ccc(Cl)cc2)C=CC=N1 (centres undefined)
3 | 157 to 159 | O=C(O)C1CCc2c(c3ccccc3n2C(=O)C2CCCCC2)C1 (centres undefined)
4 | 253 to 255 | Cc1ccc(S(=O)(=O)NC(=O)N2CCN(C(=O)c3ccc(Nc4ccnc5cc(C(F)(F)F)ccc45)cc3)CC2)cc1
5 | 104 to 107 | CC(C)(C)OC(=O)Cc1nc(Sc2ccccc2)ccc1[N+](=O)[O-]
6 | 80 to 81 | COc1cc(-n2nnn(C)c2=O)c(Cl)cc1Cl
7 | 221 to 223 | CC(C)=Nc1c(-c2ccccc2)[nH]c(C)c1C(N)=O
8 | 132 | CC#CCOc1cc(Oc2ccc([N+](=O)[O-])cc2F)ncn1
9 | > 300 | COc1ccc(COc2cccc(-c3cnc4[nH]cc(C(=O)C(C)(C)C)c4n3)c2)cc1
10 | 223 to 224 | CC(C)(C)C(=O)OCOC(=O)c1[nH]c2ccccc2c1Nc1ccncc1
11 | 186 | Nc1cc(=O)n(Cc2cccc(I)c2)[nH]1
12 | 143 to 144 | COC(=O)c1ccccc1S(=O)(=O)NC(=Nc1nc(C)cc(OC)n1)SC
13 | 279 to 280 | CN(c1ccc(Cl)cc1)c1nc(=O)c2ccc(-c3ccccc3)nc2s1
14 | 47 to 48 | COc1cccc2ccc(CC#N)cc12
15 | 243 to 245 | CCCCC(=O)Nc1ccc(C(F)(F)F)c(-n2nc(CC)n(Cc3ccc(-c4ccccc4S(=O)(=O)NC(C)(C)C)cc3F)c2=O)c1
16 | > 250 | O=C(O)c1cc(-c2ccncn2)c[nH]c1=O
17 | 155 | O=C(NCCc1ccccn1)c1ccccc1-c1ccccc1CN1C(=O)c2ccccc2C1=O
18 | 205 | CC(=O)N[C@@H](C)COc1cc2oc(-c3ccc(OC[C@H]4CC4(F)F)cc3)nc2cn1
19 | 80 to 81 | CCCS(=O)(=O)NCc1ccc2ccn(C3CCN(CCc4ccc(F)cc4)CC3)c2c1
20 | 112 to 115 | COC(=O)Cn1cnc2c(OCc3ccccc3)ncnc21
21 | > 400 | O=C(O)c1ccc2c(=O)c3cc(C(=O)O)ccc3oc2c1
22 | 43 to 44 | O=C1CCc2c1sc1c2CCCC1

Row | melting point [°C] | SMILES
23 | 144 | O=C(N1CCCC1)C1(N2CCCCC2)CCNCC1
24 | 142 to 145 | O=C(O)/C=C/C=C(c1cccc(Cl)c1)c1cccc(Cl)c1
25 | 125 to 127 | COc1ccc(Cc2cc(C3CCCN(C(=O)c4ccc5c(c4)OCO5)C3)nc(N)n2)cc1 (centres undefined)
26 | 102 to 105 | CCOC(=NC(=O)c1cccc(C)c1)N1Cc2ccccc2-c2ccccc2C1
27 | 96 to 98 | COC(=O)C(=O)c1ccc(OCCOc2ccc(C(F)(F)F)cc2)cc1
28 | 147 to 148 | CN1CCC(=C2c3ccccc3-c3cocc3-c3ccccc32)CC1
29 | 100 to 101 | O=C(NC(=O)C(c1ccccc1)c1ccccc1)OCc1ccccc1
30 | 75 to 76 | CC(C)(C)OC(=O)NCC[C@H]1CC[C@H](CO)CC1
31 | 167 to 169 | CNC(=O)OC1CC2(CCN(CCCC(=O)c3ccc(F)cc3)C2)c2ccccc21 (centres undefined)
32 | 131 to 132 | CC1(C)C=C(N2CCCC2=O)c2cc(C#N)ccc2C1
33 | 68 to 69.5 | COc1ccc(Cl)c2c1CCC(CCl)=C2
34 | 188 to 191 | Cn1c(=O)n(CCCC(NS(=O)(=O)c2ccc(-c3ccc(Cl)cc3)cc2)C(=O)O)c(=O)c2ccccc21 (centres undefined)
35 | 120 | CCOCC1=C(C(=O)OCC)C(c2ccc(OC)c(F)c2)C(C(=O)OCC)=C(C)N1 (centres undefined)
36 | 135 | O=C(O)CCc1cccc(CNC(=O)C2Cc3ccccc3N2S(=O)(=O)c2ccc(-c3cccc(C(F)(F)F)c3)cc2)c1 (centres undefined)
37 | 181 to 183 | CC(=O)c1ccc(NCc2cc3c(cc2O)CCO3)cc1
38 | 90 | CC(CN(C)C)N1c2ccccc2Sc2ccc(C(=O)NCC3CC3)cc21 (racemic)
39 | 63 to 64 | CC1=C(C)CCCCCC1
40 | 218 to 220 | O=C(O)c1cc(N=Nc2cc(C(=O)O)cc(SCc3ccccc3)c2C(=O)c2ccccc2)c(C(=O)c2ccccc2)c(SCc2ccccc2)c1
41 | 107 to 108 | C=CCC(CC)(CC)C(=O)O[C@H]1C[C@H](O)C=C2C=C[C@H](C)[C@H](CC[C@@H]3C[C@@H](O)CC(=O)O3)[C@H]21
42 | 199 to 201 | Cc1cccc2c1N(C)C(=O)C(NC(=O)Nc1cccc(-c3nnn[nH]3)c1)N=C2C1CCCCC1 (centres undefined)
43 | > 300 | Nc1nc2[nH]c(=S)sc2c(=O)[nH]1
44 | 140 to 142 | O=C1CN(c2nccc(Oc3ccc(NC(=O)c4cc(F)cc(N5CCCCC5)c4)c4ccccc34)n2)CCN1

Row | melting point [°C] | SMILES
45 | 191 to 193 | COc1cc(-c2nc(NC(C)C)c3c(C)c(C#N)sc3n2)cc(OC)c1OC
46 | 98 to 100 | CCOCC1(O)c2ccccc2CCc2cc(OC)c(OC)cc21 (centres undefined)
47 | 246 to 248 | COc1cc(OC)c(-c2nc(C)c(-c3cccnc3)[nH]2)cc1Br
48 | 151 to 153 | CN(C(=O)c1ccc(N2CCOCC2)cc1)[C@@H]1CCN(C(=O)C2CCN(C(=O)C3(O)CC3)CC2)C[C@H]1c1ccc(Cl)c(Cl)c1
49 | 300 to 305 | Cc1ccc(Cl)c(Nc2ccccc2-c2n[nH]c(=S)[nH]2)c1Cl
50 | 233 to 237 | O=S(=O)(O)CCCN1CCCc2ccccc21
51 | 129 to 130 | O=C(O)C1CCCC1c1ccc2c(c1)OC[C@H](Cc1ccccc1)[C@H]2O (relative stereo)
52 | 254 to 255 | COc1ccc2sc(=NN3C(=O)CSC3=S)sc2c1
53 | 234 to 235 | Nc1nc(-c2ccc(F)cc2)c(CCN2CCC(n3nnc4cc(F)ccc43)CC2)s1
54 | 48 | CCCCCCCCC#CCC#CCC#CCO
55 | 99 to 101 | Cc1ccc(S(=O)(=O)N(CCCl)N(S(C)(=O)=O)S(C)(=O)=O)cc1
56 | 58 to 60 | COc1ccc2sc(=Nc3ccccc3)sc2c1
57 | 105 | COc1[nH]c(C)cc1C#N
58 | 207 to 209 | N#Cc1ccc(C(=O)N2CCC3(CC2)C(=O)NC(=O)N3Cc2ccccc2)cc1
59 | 134 to 136 | COc1ccc(Nc2cnc3cnc(-c4ccc(O)cc4)nc3c2)cc1
60 | 199 to 201 | CCC(Oc1ccc(C(C)(C)CC)cc1C(C)(C)CC)C(=O)Nc1cc(O)c(NC(=O)c2ccccc2NS(C)(=O)=O)cc1Cl (centres undefined)
61 | 129 to 131 | O=C(Cc1cccs1)NC1CN(C(C(=O)O)c2ccc(OC(=O)c3ccccc3)cc2)C1=O (centres undefined)
62 | 230 | CC(C)[C@H](NC(=O)CN)c1nc2c(C(F)(F)F)cccc2c(O)c1C(=O)Nc1nccs1
63 | > 200 | Cn1c(=O)[nH]c(N2CCc3ccccc3CC2)c(C#N)c1=O
64 | 151 to 154 | CCCO[C@@H](Cc1ccc(OCCc2nc(-c3ccc(-c4ccccc4)cc3)oc2C)c2ccccc12)C(=O)O
65 | 194 to 196 | COCC1(C)CCCOc2cc(/C=C/c3ccc(C(=O)O)cc3)ccc21 (centres undefined)
66 | 201 to 202 | CCc1[nH]n(C2CCCC2)c2nc(-c3ccccc3C(F)(F)F)nc(=O)c1-2

Row | SMILES | melting point [°C]
67 | CC(C)(N)Cc1nc2ccccc2[nH]1 | 209 to 214
68 | CCCN(c1ncccc1N)C1CCN(Cc2ccccc2)CC1 | 73 to 74
69 | CC(=O)Nc1ccc(S(=O)(=O)F)cc1 | 169 to 171
